According to US20080288176A1 (priority 2005, published 2008):

Experiments:
male Wistar rats = experiment: Gastric ulcer index after oral dosing; assay type: in vivo, rat; conditions: for Ulcer Indices, Mean: oral gavage, naproxen 250 mg/kg or molar equivalent (ROF 250 mg/kg), 6 h after dosing, mean aggregate gastric ulcer length; for Ulcerogenicity (in words): oral, 6 h
Protocol: (§1) Table 1 is a summary of the protocol for a study which was conducted in male Wistar rats weighing 275-300 grams. The animals were allowed to acclimatize for at least five days prior to the commencement of the study. The study protocol was approved by the local animal ethics committee.
(§2) The animals were fasted overnight prior to test substance administration. The test substance was administered orally by gavage on the morning of the study day. All test animals had blood collected during the test period in both EDTA (ethylenediaminetetraacetic acid) tubes and SST (Serum Separator Tubes) at 1, 3 and 6 hours after dosing. Blood was collected into EDTA tubes only at 1 and 3 hours by tail tip amputation. Volume of blood collected was between 0.5 and 1 mL at each of these collections. The final collection was by puncture of the abdominal vena cava under isoflurane general anesthesia. Final blood collection was targeted as follows: 1st EDTA #1—1.5 mL; 2nd SST—1.5 mL; 3rd EDTA #2—as much as possible.
Each animal from all groups underwent a full necropsy under the supervision of a board certified veterinary pathologist. The stomach of each rat was cut along the greater curvature, contents removed into a polypropylene (Falcon) tube, the mucosa rinsed with saline and any obvious ulcers or erosions were measured along the longest axis. This measurement was recorded for each ulcer or erosion observed in each stomach. The falcon tubes and their contents were frozen at −80° C. and shipped to Novokin on dry ice for analysis.
The aggregate length of all gastric ulcers found in a given animal was calculated. The mean aggregate ulcer length across animals in a group was calculated. This mean value was reported as the ulcer index for that group.
The ulcer index of each modified drug was compared with the ulcer index of its associated parent drug and the controls using analysis of variance and Duncan's multiple range test for pairwise comparisons. Statistical analysis was done using SAS® (SAS Institute Inc., Cary, N.C.).

[1] = Plasma NAPROXEN AUC0-6h after oral dosing; assay type: in vivo, rat; conditions: male Wistar rats
Protocol: as §1

[2] = Serum nitrate concentration (NO release) after oral dosing; assay type: in vivo, rat; conditions: male Wistar rats, oral gavage, at 6 hours
Protocol: as §1, §2
EDTA samples were centrifuged, and the plasma portion was collected and frozen at −80° C. SST samples were incubated at 37° C. for approximately 45 minutes, centrifuged, and the serum was collected and frozen at −80° C. until analysis.

[3] = test system: cardiac tissue prostacyclin (PGI2) to thromboxane A2 (TXB2) ratio; experiment: Cardiac tissue prostacyclin to thromboxane ratio; assay type: in vivo, rat; conditions: male Wistar rats; for Cardiac Tissue PGI2/TXB2, Mean: oral gavage, heart removed 6 hours after dosing
Description: Myocardial infarction and ischemic events in high risk patients led one of the most popular COX-2 inhibitors to its demise (Bresalier et al., 2005). Non-selective NSAIDS may also cause similar problems due to their ability to inhibit COX-2. […] Adenosine diphosphate (ADP) generation is an indicator of myocardial infarction which has no connection with the arachidonic acid cascade (Borna et al., 2005). […] Long term NSAID use has been linked to kidney damage and hypertension (Zafirovska et al., 1993). […] This was associated with an increase in the urine the ratio of alanine-amino-peptidase (AAP) and creatinine.
as §1
All rats were euthanized by removal of the heart 6 hours after initial dosing, following final blood collections. Immediately after terminal blood collections were complete, the thorax was opened and the heart removed. The heart was cut in half longitudinally. Half of the heart was placed in formalin for histological examination. The other half was quickly rinsed in saline and then freeze-clamped (crushed between the jaws of a pair of modified tongs, cooled by liquid nitrogen). An entire kidney was freeze-clamped. The other kidney was left in situ for examination by the pathologist. Freeze-clamped tissues were wrapped in labeled aluminum foil and stored in liquid nitrogen until they could be transferred to a −80° C. freezer. Freeze-clamped tissues were shipped on dry ice to NOVOKIN for analysis.

[4] = Hydrolysis in rat intestinal microsomes; assay type: in vitro ADME; conditions: for intestinal microsomal activity: model input
Description: (§3) The physiologically based pharmacokinetic/pharmacodynamic model of the present invention contains a series of compartments that describe the time course of a nonsteroidal anti-inflammatory prodrug, its active metabolites and nitric oxide release in intestine, liver, kidneys, blood/plasma and heart after prodrug administration. The time course of the prodrug, its active metabolites and nitric oxide release can be simulated using a series of in vitro and in silico inputs. The stability of each component in the gastrointestinal lumen is estimated using data collected from artificial gastric and intestinal juice. Intestinal metabolism is estimated using intestinal microsomes and absorption rate is estimated using permeability data collected from a cell monolayer such as Caco-2. Hepatic elimination is estimated using liver microsomes and stability in plasma is calculated using degradation of each component in the media. Plasma protein binding can either be measured using a standardized in vitro method or it can be estimated using an in silico method. The distribution of each component in various parts of the body is estimated using an in silico method. The rate of nitric oxide release is estimated using an in vitro endothelial cell model. The time course of prodrug, its active metabolites and nitric oxide can be simulated in human and animal using this physiologically based pharmacokinetic/pharmacodynamic model provided that the corresponding in vitro and in silico data are used as inputs.
(§4) Representative in vitro tests or in silico estimates include: (a) pKa estimation or measurement; (b) Log P measurement or in silico estimation; (c) Solubility in various physiological fluids; (d) Permeability. Caco-2 and/or NOVOKIN's proprietary animal and human cell lines can be used to obtain this parameter; (e) Metabolic rate in the intestine and liver. Human or animal intestinal microsomes, S9 fraction, and cytosol can be used for this purpose. Human or animal hepatocytes, liver microsomes, S9 fraction, and cytosol can also be used; (f) Hydrolysis in human or animal plasma; (g) Serum or plasma protein binding. It can be measured in vitro or estimated in silico; (h) The rate of NO release; (i) Existing pharmacokinetic and pharmacodynamic data of NSAID or a biocompatible agent; (j) Existing NO release rate of known diazeniumdiolate if applicable; (k) Stability in gastric and intestinal environment; and (l) In silico volume of distribution estimation.
(§5) Whenever in vitro estimate is attainable, the in vitro results will be used, for example, plasma protein binding. Methods reported by Bowalgaha & Miners (2001), Martignoni et al. (2006), Tong et al. (2001) and Thulesen et al. (1999) were used for in vitro and in vivo scale-up for clearance in the intestine, absorption rate constant and hepatic clearance. The simulation begins with no material in all compartments except for the initial bolus in one compartment (typically the stomach compartment). The simulation then estimates the changing distribution of the material with time.

[5] = Hydrolysis in rat liver microsomes; assay type: in vitro ADME; conditions: for liver microsomal activity: model input
Description: as §3, §4, §5

[6] = Stability in gastric environment (gastric decay rate); assay type: in vitro ADME
Description: as §3, §4

Hydrolysis in rat plasma = assay type: in vitro ADME; conditions: Rat
Description: as §3, §4

[7] = Hydrolysis in human plasma; assay type: in vitro ADME
Description: as §3, with “The time course of prodrug, its active metabolites and nitric oxide can be simulated in human and animal using this physiologically based pharmacokinetic/pharmacodynamic model provided that the corresponding in vitro and in silico data are used as inputs.” left out

Row | Structure (SMILES) | Ulcer Indices, Mean (male Wistar rats) | Ulcerogenicity (in words) (male Wistar rats) | AUC0-6h of NAPROXEN compared with parent drug (in words) [1] | Serum Nitrate Concentrations, Mean [2] | PGI2/TXA2 ratio comparison (in words) ([3]; cardiac tissue) | Cardiac Tissue PGI2/TXB2, Mean [3] | intestinal microsomal activity [4] [mL/min/organ] | liver microsomal activity [5] [mL/min/organ] | gastric decay rate constant ([6]; Human) | gastric decay rate constant ([6]; Rat) | plasma decay rate constant (Hydrolysis in rat plasma) [min⁻¹] | plasma decay rate constant [7] [min⁻¹] | intestinal molar percent conversion to Naproxen [4] [%] | liver molar percent conversion to Naproxen [5] [%]
1 | COc1ccc2cc([C@H](C)C(=O)OCCCCO[N+](=O)[O-])ccc2c1 [AZD 3582] | 3.444 | severely ulcerogenic | much lower than for NAPROXEN parent drug | 460.667 | lower ratios than vehicle | 3.432 | 0.09 | 1029 | 0 /mint | 0 /mint | 1.0 | 1.0 |  | 
2 | COc1ccc2cc(C(C)C(=O)OCON=[N+]([O-])N3CCCC3)ccc2c1 (centres unmarked) [PYRO-NO-NAP, pyrrolidino-diazeniumdiolate-naproxen] | 1.450 | not significantly different from vehicle |  | 389.000 |  | 4.937 | 1 | 1920 | 0 /mint | 0 /mint | 1.4 |  | 10 | 40
